Experimental data as given in patent US20190175491A1, “TOPICAL COMPOSITIONS OF APREMILAST” (TORRENT PHARMACEUTICALS LIMITED, priority 2016, published 2019).

Experiments:
Solubility of apremilast = type: physicochemical
Description: Apremilast is insoluble in water. Even in polar solvent phase, only 0.066% of apremilast was found soluble. Therefore, it is challenging to formulate a topical composition of apremilast having an amount, which provides effective concentration of apremilast at the site of action.

[1] = cited from earlier work
[2] = oral Apremilast; cited from earlier work

SMILES: CCOc1cc([C@@H](CS(C)(=O)=O)N2C(=O)c3cccc(NC(C)=O)c3C2=O)ccc1OC [Apremilast, N-{2-[(1S)-1-(3-Ethoxy-4-methoxyphenyl)-2-(methylsulfonyl)ethyl]-1,3-dioxo-2,3-dihydro-1H-isoindol-4-yl} acetamide]
- apremilast found soluble in polar solvent phase (Solubility of apremilast): 0.066%
- solubility in water [1]: insoluble
- most commonly reported adverse reactions [2]: Diarrhea, nausea and headache
